Among the data in patent US8927534B2, “Compounds for the inhibition of integrins and use thereof” (Shire Orphan Therapies GmbH, priority 2006, dated 2015) are IC50 values, retold here.

Where only a bound is given, the exact number is not on record here.

The target of test [1] is integrin alpha5beta1 extracellular domain Fc-fusion (Homo sapiens (Human), UniProt P05556+P08648). The test is described as follows: alpha5beta1-Fibronectin binding assay (competitive ELISA). Particulars: inhibition of integrin binding to coated fibronectin. The procedure:
(§1) The optimal concentrations of integrin and ligand were selected from ELISA binding studies with variable concentrations of both to obtain optimal signal noise ratio for further studies. IC50 studies were performed with fixed concentration of ligand and integrin and a serial dilution of inhibitor. The plates were measured with SpectraMax Plus reader (Molecular Devices). The resulting inhibition curves were analyzed using SoftMaxPro 4.0 software, the turning point describes the IC50 value.
(§2) Fibronectin was purchased from Sigma and fibrinogen from Calbiochem. (EMD Biosciences, Darmstadt, Germany). The integrin alpha5beta1 extracellular domain Fc-fusion was expressed and purified as described (Coe, 2001, J. Biol. Chem., 276, 35854). Integrin alphaIIbbeta3 was purchased form Kordia (Kordia Life Science, Leiden, Netherlands)
Fibronectin was diluted with coating buffer (15 mM Na2CO3, 35 mM NaHCO3, pH 9.6) and coated with 100 μL/well to Nunc-Immuno maxisorp plates (Nalge Nunc Europe Ltd) over night at 4° C. After discarding the coating solution plates were washed 3 times with buffer 1 (25 mM Tris, pH 7.6, 150 mM NaCl, 1 mM MnCl2, 1 mg/ml BSA) and blocked with 100 μL blocking buffer (3% BSA in PBS 0.1% Tween20) for 1 hour at room temperature. After washing the blocked plates (3 times) with buffer 1, integrin (50 μL) and either inhibitor (serial dilution in buffer 1) or buffer 1 (50 μL) were added to the wells and incubated for one hour at RT. Plates were then washed (3 times) with buffer 1 and incubated with 100 μL of anti-human-Fc-HRP antibody conjugate (Sigma-Aldrich, Taufkirchen, Germany) in buffer 1 for 1 hour at RT. After additional washing steps (3 times) with buffer 150 μL of HRP substrate solution TMB (Seramun, Germany) were added to the wells. Color development was stopped after 3-5 minutes with 50 μL 1 M H2SO4. The developed color was measured at 450 nm and analyzed as described above.
In general terms: In an ELISA, binding on a coated surface is turned into a signal by an enzyme label.

A further test deals with Integrin alphaIIbbeta3 (Homo sapiens (Human), UniProt P05106+P08514). Put plainly: alphaIIbbeta3-Fibrinogen binding assay (competitive ELISA). Particulars: inhibition of integrin binding to coated fibrinogen; read-out: IC50 alphabIIbbeta3. On the procedure: as §1, §2
Fibrinogen was diluted with coating buffer (15 mM Na2CO3, 35 mM NaHCO3, pH 9.6) and coated with 100 μL/well to Nunc-Immuno maxisorp plates over night at 4° C. After discarding the coating solution plates were washed 3 times with buffer 1 (25 mM Tris, pH 7.6, 150 mM NaCl, 1 mM MnCl2, 1 mg/ml BSA) and blocked with 100 μL blocking buffer (3% BSA in PBS 0.1% Tween20) for 1 hour at room temperature. After washing the blocked plates (3 times) with buffer 1, integrin alphaIIbbeta3 (50 μL) and either inhibitor (serial dilution in buffer 3, 25 mM Tris, pH 7.6, 150 mM NaCl, 1 mM MnCl2, 1 mg/ml BSA 1 mM MgCl2, 1 mM CaCl2,) or buffer 3 (50 μL) were added to the wells and incubated for one hour at RT. Plates were then washed (3 times) with buffer 3 and incubated with 100 μL of anti-alphaIIbbeta3 antibody (anti CD41b, Pharmingen) in buffer 3 for 1 hour at RT. Plates were washed (3 times) with buffer 3 and incubated for 1 hour with 100 μL secondary antibody (anti-mouse-HRP conjugate, Sigma) in buffer 3. After additional washing steps (3 times) with buffer 350 μL of HRP substrate solution TMB (Seramun) were added to the wells. Color development was stopped after 3-5 minutes with 50 μL 1 M H2SO4. The developed color was measured at 450 nm and analyzed as described above.

The target of another test is alpha5beta1 (Homo sapiens (Human), UniProt P05556+P08648). Put plainly: Cell adhesion assay with HEK293. In kind it is cell-based. The conditions noted are these: HEK293 cells, fibronectin-coated plates, 1 h at 37° C., 2 mM MgCl2. The procedure: Cryopreservated cells were thawed and grown for 72 h in DMEM medium with 10% FCS, 2 mM glutamine, 100 U/ml penicillin and 100 μg/ml streptomycin before use.
Cells were detached with cell dissociation solution (Sigma) and suspended in growth medium, centrifuged and resuspended in buffer A (150 mM NaCl, 25 mM HEPES, 2 mM EDTA, pH 7.4). Cells were incubated for 30 min at 37° C. in a 5% CO2. Subsequently, cells were washed with pre-warmed buffer B (150 mM NaCl, 25 mM HEPES pH 7.4) and resuspended in buffer B. 96-well Maxisorp-plate were coated with 0.01% poly-L-lysine, 10 μg/ml fibronectin (Chemicon; #F1904) in carbonate buffer or carbonate buffer alone (15 mM Na2CO3, 35 mM NaHCO3, pH 9.6) for 1 h at RT. Plates were washed and blocked with 1% BSA for 30 min at RT. Cells were preincubated with test compound and adjusted DMSO concentrations for 10 min at RT. 7×10^4 cells per well were plated in triplicate and allowed to attach for 1 h at 37° C. in the presence of 2 mM MgCl2. Cells were washed with PBS and adherent cells were fixed with 5% glutaraldehyde for 30 min.
Cells were subsequently washed and stained with 0.1% Crystal Violet for 1 hr at 37° C. Plates were washed and incorporated dye was solubilized with 10% acetic acid. Absorbance was measured at 570 nm using a Spectramax Plus 384 microtiter plate reader and analyzed with SoftMaxPro (Molecular Devices). Minimal binding on BSA was subtracted. IC50 values were determined using XL-FIT.

The next test concerns HUVEC. The test is described as follows: Migration assay with HUVEC. In kind it is cell-based. The conditions noted are these: Homo sapiens, transwell coated with chymotryptic fibronectin fragment, 10 ng/ml bFGF chemoattractant, 3 h. On the procedure:
Migration assays are carried out using modified Boyden chambers consisting of Fluoroblock Transwell membrane filter (8 μm pores) in 24 well companion tissue plates (BD). Three wells per group are used.
The underfaces of the transwell membranes are coated with chymotryptic fibronectin fragment (10 μg/ml; Chemicon) and blocked with 2% BSA for 1 h at room temperature. After rinsing with PBS transwells are placed into companion plates containing 700 μl serumfree medium with indicated compound concentrations and chemoattractant (10 ng/ml bFGF; Promocell).
HUVEC are maintained in standard culture medium (Endothelial Cell Growth Medium; Promocell, containing supplement mix and 2% FCS) in a humified 5% CO2 incubator at 37° C. Cells are grown to 70-90% confluency and are made quiescent in culture medium containing 0.5% FCS, 0.1% BSA, no supplements for 16 h. Medium is removed and serum-free medium (0% FCS; 0.1% BSA, no supplements) is added for 1.5 h. Cells are detached with trypsin and cell suspension is adjusted to 1×10^5/ml. Indicated compound concentrations are added to cells. Cells are preincubated with compounds for 15 min, before seeding of 250 μl of the cell suspensions into the transwells. Cells are allowed to migrate for 3 h in 37° C. incubator with 5% CO2. Then, transwells are transferred to 24 well companion tissue plates containing Calcein AM (4 μM; Molecular Probes) in HBSS and incubated for another 2 h. Plates are read at excitation/emission […] in a fluorescence reader.
Results are expressed as percent of control (cells in serumfree medium without compound and chemoattractant.

With `Cc1ccnc(NCC2CCN(c3ccc(CC(NC(=O)c4c(C)cc(C)cc4C)C(=O)O)cc3)CC2)c1` (centres unmarked) [Compound 8, 3-(4-(4-((4-methylpyridin-2-ylamino)methyl)piperidin-1-yl)phenyl)-2-(2,4,6-trimethylbenzamido)propanoic acid], the IC50 (commonly the midpoint of a concentration-inhibition curve) is under 100 nM in test [1], over 1000 nM at Integrin alphaIIbbeta3, under 2000 nM on alpha5beta1 and under 10000 nM in the test with HUVEC.
Take `Cc1cc(C)c(C(=O)NC(Cc2ccc(N3CC(CNc4ccccn4)C3)cc2)C(=O)O)c(C)c1` (centres unmarked) [Compound 11, 3-(4-(3-((pyridin-2-ylamino)methyl)azetidin-1-yl)phenyl)-2-(2,4,6-trimethylbenzamido)propanoic acid]: the half-maximal inhibitory concentration (IC50) in test [1] is over 100 nM; on Integrin alphaIIbbeta3 it was over 1000 nM; against alpha5beta1 it was over 20000 nM.
The like results for `Cc1cc(C)c(C(=O)NC(Cc2ccc(N3CCC(CNc4nc5ccccc5[nH]4)CC3)cc2)C(=O)O)c(C)c1` (centres unmarked) [Compound 20, 3-(4-(4-((1H-benzo[d]imidazol-2-ylamino)methyl)piperidin-1-yl)phenyl)-2-(2,4,6-trimethylbenzamido)propanoic acid] were, in that order, over 100 nM, over 1000 nM and 2000 to 20000 nM.
For the compound `Cc1cc(C)c(C(=O)NC(Cc2ccc(N3CCC(c4ccc5c(n4)NCCC5)CC3)cc2)C(=O)O)c(C)c1` (centres unmarked) [Compound 23, 3-(4-(4-(5,6,7,8-tetrahydro-1,8-naphthyridin-2-yl)piperidin-1-yl)phenyl)-2-(2,4,6-trimethylbenzamido)propanoic acid], the IC50 in test [1] is under 100 nM; on Integrin alphaIIbbeta3, over 1000 nM; against alpha5beta1, under 2000 nM; in the test on HUVEC it was under 10000 nM.
As to `CC1(C(=O)NC(CC2CCN(C(=O)CCc3ccc4c(n3)NCCC4)CC2)C(=O)O)CCCCC1` (centres unmarked) [Compound 29, 2-(1-methylcyclohexanecarboxamido)-3-(1-(3-(5,6,7,8-tetrahydro-1,8-naphthyridin-2-yl)propanoyl)piperidin-4-yl)propanoic acid], the IC50 in test [1] was under 100 nM; on Integrin alphaIIbbeta3 it was over 1000 nM; against alpha5beta1, 2000 to 20000 nM; in the test with HUVEC it was over 20000 nM.
On to `Cc1ccnc(NCC2CCN(c3ccc(CC(NC(=O)C4(C)CCCCC4)C(=O)O)cc3)CC2)c1` (centres unmarked) [Compound 75, 2-(1-methylcyclohexanecarboxamido)-3-(4-(4-((4-methylpyridin-2-ylamino)methyl)piperidin-1-yl)phenyl)propanoic acid], for which the figures for the half-maximal inhibitory concentration (IC50) (in test [1]; at Integrin alphaIIbbeta3; against alpha5beta1) were under 100 nM, over 1000 nM and under 2000 nM, respectively.
As to `Cc1ccnc(NCC2CC(=O)N(c3ccc(CC(NC(=O)c4c(C)cc(C)cc4C)C(=O)O)cc3)C2)c1` (centres unmarked) [Compound 114, 3-(4-(4-((4-methylpyridin-2-ylamino)methyl)-2-oxopyrrolidin-1-yl)phenyl)-2-(2,4,6-trimethylbenzamido)propanoic acid], the figures for the IC50 (in test [1]; against alpha5beta1; with HUVEC) were under 100 nM, under 2000 nM and under 10000 nM, respectively.
For `CCc1cc(F)cc(C)c1C(=O)NC(Cc1ccc(N2CCC(CNc3ccccn3)CC2)cc1)C(=O)O` (centres unmarked) [Compound 120, 2-(2-ethyl-4-fluoro-6-methylbenzamido)-3-(4-(4-((pyridin-2-ylamino)methyl)piperidin-1-yl)phenyl)propanoic acid], the IC50 is under 100 nM in test [1], over 1000 nM at Integrin alphaIIbbeta3, under 2000 nM at alpha5beta1 and under 10000 nM in the test with HUVEC.
For `COc1ccnc(NCC2CCN(c3ccc(CC(NC(=O)c4c(C)cc(C)cc4C)C(=O)O)cc3)CC2)c1` (centres unmarked) [Compound 147, 3-(4-(4-((4-methoxypyridin-2-ylamino)methyl)piperidin-1-yl)phenyl)-2-(2,4,6-trimethylbenzamido)propanoic acid], the IC50 in test [1] was under 100 nM; against alpha5beta1, under 2000 nM.
The like results for `Cc1ccnc(NCC2CCN(c3ccc(CC(NC(=O)c4ccccc4)C(=O)O)cc3)CC2)c1` (centres unmarked) [Compound 262, 2-benzoylamino-3-(4-{4-[(4-methyl-pyridin-2-ylamino)methyl]piperidin-1-yl}phenyl)propionic acid] were, in that order, under 100 nM and 2000 to 20000 nM.
Consider `Cc1ccnc(NCC2CCN(c3ccc(CC(NC(=O)C(c4ccccc4)C(C)C)C(=O)O)cc3)CC2)c1` (centres unmarked) [Compound 266, 2-(3-methyl-2-phenyl-butyrylamino)-3-(4-{4-[(4-methyl-pyridin-2-ylamino)methyl]piperidin-1-yl}phenyl)propionic acid], for which the IC50 in test [1] is under 100 nM; at Integrin alphaIIbbeta3, over 1000 nM; at alpha5beta1 it was under 2000 nM.
Turning to `CCCNC(=O)NCC1CCN(c2ccc(CC(NC(=O)c3c(C)cc(C)cc3C)C(=O)O)cc2)CC1` (centres unmarked) [Compound 269, 3-(4-{4-[(3-propyl-ureido)methyl]piperidin-1-yl}phenyl)-2-(2,4,6-trimethyl-benzoylamino)propionic acid], the IC50 in test [1] was under 100 nM; on Integrin alphaIIbbeta3, over 1000 nM; on alpha5beta1, over 20000 nM.
